Source: PubChem BioAssay AID1259407 (Chemical Carcinogenesis Research Information System (CCRIS), 2018)
Active and inactive are the calls of the source. The rule behind the calls is not given here.

Tested on: CCRIS mutagenicity, Ames/micronucleus/aberration tests
Assay: CCRIS mutagenicity studies
[1] = Test System: AMES SALMONELLA TYPHIMURIUM, Strain/Indicator: TA98, Metabolic Activation: HAMSTER, LIVER, S-9, AROCLOR 1254 (10%), Method: PREINCUBATION
[2] = Test System: AMES SALMONELLA TYPHIMURIUM, Strain/Indicator: TA98, Metabolic Activation: NONE, Method: PREINCUBATION
[3] = Test System: AMES SALMONELLA TYPHIMURIUM, Strain/Indicator: TA98, Metabolic Activation: NONE, Method: STANDARD PLATE
[4] = Test System: AMES SALMONELLA TYPHIMURIUM, Strain/Indicator: TA98, Metabolic Activation: RAT, LIVER, S-9, AROCLOR 1254 (10%), Method: PREINCUBATION
[5] = Test System: AMES SALMONELLA TYPHIMURIUM, Strain/Indicator: TA100, Metabolic Activation: HAMSTER, LIVER, S-9, AROCLOR 1254 (10%), Method: PREINCUBATION
[6] = Test System: AMES SALMONELLA TYPHIMURIUM, Strain/Indicator: TA100, Metabolic Activation: NONE, Method: PREINCUBATION
[7] = Test System: AMES SALMONELLA TYPHIMURIUM, Strain/Indicator: TA100, Metabolic Activation: NONE, Method: STANDARD PLATE
[8] = Test System: AMES SALMONELLA TYPHIMURIUM, Strain/Indicator: TA100, Metabolic Activation: RAT, LIVER, S-9, AROCLOR 1254 (10%), Method: PREINCUBATION
[9] = Test System: AMES SALMONELLA TYPHIMURIUM, Strain/Indicator: TA1535, Metabolic Activation: HAMSTER, LIVER, S-9, AROCLOR 1254 (10%), Method: PREINCUBATION
[10] = Test System: AMES SALMONELLA TYPHIMURIUM, Strain/Indicator: TA1535, Metabolic Activation: NONE, Method: PREINCUBATION
[11] = Test System: AMES SALMONELLA TYPHIMURIUM, Strain/Indicator: TA1535, Metabolic Activation: NONE, Method: STANDARD PLATE
[12] = Test System: AMES SALMONELLA TYPHIMURIUM, Strain/Indicator: TA1535, Metabolic Activation: RAT, LIVER, S-9, AROCLOR 1254 (10%), Method: PREINCUBATION
[13] = Test System: AMES SALMONELLA TYPHIMURIUM, Strain/Indicator: TA1537, Metabolic Activation: NONE, Method: STANDARD PLATE
[14] = Test System: AMES SALMONELLA TYPHIMURIUM, Strain/Indicator: TA1538, Metabolic Activation: NONE, Method: STANDARD PLATE
[15] = Test System: AMES SALMONELLA TYPHIMURIUM, Strain/Indicator: TA98, Metabolic Activation: S-9, Method: STANDARD PLATE
[16] = Test System: AMES SALMONELLA TYPHIMURIUM, Strain/Indicator: TA100, Metabolic Activation: S-9, Method: STANDARD PLATE
[17] = Test System: AMES SALMONELLA TYPHIMURIUM, Strain/Indicator: TA1537, Metabolic Activation: S-9, Method: STANDARD PLATE

Structure (SMILES): C/C=C1\CC2C=CC1C2 (stereo not drawn)
- mutagenic call [1]: inactive; negative
- mutagenic call [2]: inactive; negative
- mutagenic call [3]: inactive; negative
- mutagenic call (Test System: AMES SALMONELLA TYPHIMURIUM, Strain/Indicator: TA98, Metabolic Activation: RAT LIVER S-9, AROCLOR 1254, Method: STANDARD PLATE): inactive; negative
- mutagenic call [4]: inactive; negative
- mutagenic call [5]: inactive; negative
- mutagenic call [6]: inactive; negative
- mutagenic call [7]: inactive; negative
- mutagenic call (Test System: AMES SALMONELLA TYPHIMURIUM, Strain/Indicator: TA100, Metabolic Activation: RAT LIVER S-9, AROCLOR 1254, Method: STANDARD PLATE): inactive; negative
- mutagenic call [8]: inactive; negative
- mutagenic call [9]: inactive; negative
- mutagenic call [10]: inactive; negative
- mutagenic call [11]: inactive; negative
- mutagenic call (Test System: AMES SALMONELLA TYPHIMURIUM, Strain/Indicator: TA1535, Metabolic Activation: RAT LIVER S-9, AROCLOR 1254, Method: STANDARD PLATE): inactive; negative
- mutagenic call [12]: inactive; negative
- mutagenic call (Test System: AMES SALMONELLA TYPHIMURIUM, Strain/Indicator: TA1537, Metabolic Activation: HAMSTER, LIVER, S-9, AROCLOR 1254 (10%), Method: PREINCUBATION): inactive; negative
- mutagenic call (Test System: AMES SALMONELLA TYPHIMURIUM, Strain/Indicator: TA1537, Metabolic Activation: NONE, Method: PREINCUBATION): inactive; negative
- mutagenic call [13]: inactive; negative
- mutagenic call (Test System: AMES SALMONELLA TYPHIMURIUM, Strain/Indicator: TA1537, Metabolic Activation: RAT LIVER S-9, AROCLOR 1254, Method: STANDARD PLATE): inactive; negative
- mutagenic call (Test System: AMES SALMONELLA TYPHIMURIUM, Strain/Indicator: TA1537, Metabolic Activation: RAT, LIVER, S-9, AROCLOR 1254 (10%), Method: PREINCUBATION): inactive; negative
- mutagenic call [14]: inactive; negative
- mutagenic call (Test System: AMES SALMONELLA TYPHIMURIUM, Strain/Indicator: TA1538, Metabolic Activation: RAT LIVER S-9, AROCLOR 1254, Method: STANDARD PLATE): inactive; negative
- mutagenic call (Test System: CHINESE HAMSTER OVARY, Strain/Indicator: CHO-K1-BH4 (HGPRT)/6-THIOGUANINE, Metabolic Activation: NONE): inactive; negative
- mutagenic call (Test System: CHINESE HAMSTER OVARY, Strain/Indicator: CHO-K1-BH4 (HGPRT)/6-THIOGUANINE, Metabolic Activation: RAT LIVER S-9, AROCLOR 1254): inactive; negative

Structure (SMILES): CCCCCCNC(=O)n1cc(F)c(=O)[nH]c1=O
- mutagenic call [15]: inactive; negative
- mutagenic call [7]: inactive; negative
- mutagenic call [16]: inactive; negative
- mutagenic call (Test System: AMES SALMONELLA TYPHIMURIUM, Strain/Indicator: TA102, Metabolic Activation: NONE, Method: STANDARD PLATE): inactive; negative
- mutagenic call [13]: inactive; negative
- mutagenic call [17]: inactive; negative
- mutagenic call (Test System: E. COLI, Strain/Indicator: WP2 (HCR), Metabolic Activation: NONE, Method: STANDARD PLATE): inactive; negative
- mutagenic call (Test System: E. COLI, Strain/Indicator: WP2 (HCR), Metabolic Activation: S-9, Method: STANDARD PLATE): inactive; negative

Structure (SMILES): Cc1cccc(OCC(O)CNC(C)(C)C)c1C (stereo not drawn)
- mutagenic call [3]: inactive; negative
- mutagenic call [15]: inactive; negative
- mutagenic call [7]: inactive; negative
- mutagenic call [16]: inactive; negative
- mutagenic call [11]: inactive; negative
- mutagenic call (Test System: AMES SALMONELLA TYPHIMURIUM, Strain/Indicator: TA1535, Metabolic Activation: S-9, Method: STANDARD PLATE): inactive; negative
- mutagenic call [13]: inactive; negative
- mutagenic call [17]: inactive; negative
- mutagenic call [14]: inactive; negative
- mutagenic call (Test System: AMES SALMONELLA TYPHIMURIUM, Strain/Indicator: TA1538, Metabolic Activation: S-9, Method: STANDARD PLATE): inactive; negative
- mutagenic call (Test System: E. COLI WP2, Strain/Indicator: WP2 UVRA, Metabolic Activation: NONE, Method: STANDARD PLATE): inactive; negative
- mutagenic call (Test System: E. COLI WP2, Strain/Indicator: WP2 UVRA, Metabolic Activation: S-9, Method: STANDARD PLATE): inactive; negative

Structure (SMILES): Nc1cc([N+](=O)[O-])cc(Cl)c1O
- mutagenic call (Test System: AMES SALMONELLA TYPHIMURIUM, Strain/Indicator: TA97, Metabolic Activation: HAMSTER, LIVER, S-9, AROCLOR 1254 (10%), Method: PREINCUBATION): active; positive
- mutagenic call (Test System: AMES SALMONELLA TYPHIMURIUM, Strain/Indicator: TA97, Metabolic Activation: NONE, Method: PREINCUBATION): active; positive
- mutagenic call (Test System: AMES SALMONELLA TYPHIMURIUM, Strain/Indicator: TA97, Metabolic Activation: RAT, LIVER, S-9, AROCLOR 1254 (10%), Method: PREINCUBATION): active; positive
- mutagenic call [1]: active; positive
- mutagenic call [2]: active; positive
- mutagenic call [4]: active; positive
- mutagenic call [5]: inactive; negative
- mutagenic call [6]: active; positive
- mutagenic call [8]: active; positive
- mutagenic call [9]: inactive; negative
- mutagenic call [10]: inactive; negative
- mutagenic call [12]: inactive; negative

Structure (SMILES): O=C1NCCN1c1nccs1
- mutagenic call [3]: active; positive

Structure (SMILES): Nc1ccc(Cc2ccc(N=O)c(Cl)c2)cc1Cl
- mutagenic call [2]: inactive; negative
- mutagenic call [6]: inactive; negative

Structure (SMILES): CC(=O)Nc1nc2c3cccnc3cc(C)c2n1C
- mutagenic call (Test System: AMES SALMONELLA TYPHIMURIUM, Strain/Indicator: TA98(1,8-DNP6), Metabolic Activation: RAT, LIVER, S-9, Method: STANDARD PLATE): inactive; negative
- mutagenic call (Test System: AMES SALMONELLA TYPHIMURIUM, Strain/Indicator: TA98(NR), Metabolic Activation: RAT, LIVER, S-9, Method: STANDARD PLATE): active; positive
- mutagenic call (Test System: AMES SALMONELLA TYPHIMURIUM, Strain/Indicator: TA98, Metabolic Activation: RAT, LIVER, S-9, Method: STANDARD PLATE): active; positive
- mutagenic call (Test System: AMES SALMONELLA TYPHIMURIUM, Strain/Indicator: TA98, Method: STANDARD PLATE): active; positive

Structure (SMILES): COc1cc(N)c([N+](=O)[O-])cc1N
- mutagenic call [3]: active; positive
- mutagenic call (Test System: AMES SALMONELLA TYPHIMURIUM, Strain/Indicator: TA98, Metabolic Activation: RAT, LIVER, S-9, AROCLOR 1254, Method: STANDARD PLATE): active; positive
- mutagenic call [7]: inactive; negative
- mutagenic call (Test System: AMES SALMONELLA TYPHIMURIUM, Strain/Indicator: TA100, Metabolic Activation: RAT, LIVER, S-9, AROCLOR 1254, Method: STANDARD PLATE): active; positive
- mutagenic call [11]: inactive; negative
- mutagenic call (Test System: AMES SALMONELLA TYPHIMURIUM, Strain/Indicator: TA1535, Metabolic Activation: RAT, LIVER, S-9, AROCLOR 1254, Method: STANDARD PLATE): inactive; negative
- mutagenic call [13]: active; positive
- mutagenic call (Test System: AMES SALMONELLA TYPHIMURIUM, Strain/Indicator: TA1537, Metabolic Activation: RAT, LIVER, S-9, AROCLOR 1254, Method: STANDARD PLATE): active; positive
- mutagenic call [14]: active; positive
- mutagenic call (Test System: AMES SALMONELLA TYPHIMURIUM, Strain/Indicator: TA1538, Metabolic Activation: RAT, LIVER, S-9, AROCLOR 1254, Method: STANDARD PLATE): active; positive
